The experiment has as its target M2(1-49) channel forming segment of the M2 protein (Influenza A virus, UniProt P0DOF5). The format is cell-based.

Sequence of M2(1-49) channel forming segment of the M2 protein (P0DOF5 1-49 limits assumed): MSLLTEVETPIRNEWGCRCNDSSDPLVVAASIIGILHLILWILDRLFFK

With `Cl.NC12CC3CC(CC(C3)C1)C2` [amantadine, 1-aminoadamantane hydrochloride], the “expression of M2(1-49) protein in SPP culture” value is reported as “the M2(1-49) protein was expressed”. For the setting “[…], addition of amantadine”, the “rescue of expression of M2(1-49)” value is “rescued”.
